Holding throughout (assay type): cell-based
Assay [1] relates to human iPS cells (1383D2 strain). Briefly: Suspension culture after passage: proliferation, viable cell density and aggregate formation. Conditions: for proliferation in 4 days after passage (viable cell density): seeded 1.5×10^5 cells/mL, 4 days suspension culture, FIG. 6. As for the experimental part: A new multi-well plate containing AK02N containing 10 μM Y-27632 was prepared, and the cells obtained in (4), (5), and (6) were respectively seeded at a density of 1.5×10^5 cells/mL. The cells were cultured in a CO2 incubator while stirring with an orbital shaker. One and three days after seeding, 50 vol % each of the medium was exchanged with AK02N, and the suspension culture was continued until four days later.
To accurately measure the number of viable cells, after four days of culture, under the same conditions, the following operation, including centrifugation, was performed. The entire volume of each culture medium was collected in a 15-mL conical tube, and the supernatant was removed by centrifugation (200 G, 5 min, 25° C.). Accutase™ (Nacalai Tesque Inc., 12679-54) (0.5 mL) was added and the mixture was heated at 37° C. for 15 min, after which the cell aggregates were sufficiently brought to a single-cell state by pipetting. The cells attached to the wall of the conical tube were sufficiently washed with AK02N, and the supernatant was removed by centrifugation (200 G, 5 min, 25° C.). The cells were resuspended in AK02N containing 10 μM Y-27632, and the viable cell density was measured using Vi-CELL XR.
The viable cell density in the culture medium was calculated from the Vi-CELL measured values in Example 1 (4), (5), and (6). A great difference in the viable cell density was not observed depending on the passage method. The viable cell density in the culture medium was calculated from the Vi-CELL measured values in Example 1 (7). The cells passaged using WK11 proliferated 3.4-fold in 4 days, whereas the cells passaged using EDTA without centrifugation removal proliferated 0.03-fold. Even when the centrifugation step was performed, the value was as low as 0.4-fold.

For assay [2], the system named is human iPS cells (1383D2 strain), CD30 expression. Briefly: Undifferentiated marker (CD30) positive rate by flow cytometry. The conditions noted are these: FIG. 7. As for the experimental part: The undifferentiated rate was evaluated for cells 4 days after suspension culture seeding, according to the following procedure.
1×10^5 cells were quantitatively collected, centrifuged (400 g, 5 min), and the supernatant was removed. 20 μL of PE Mouse Anti-Human CD30 (BD Pharmingen™) or PE Mouse IgG1, κ Isotype Control (BD Pharmingen™) diluted 5-fold with buffer was added and the cells were left standing for 20 min at 4° C. in the dark. After washing several times with buffer, the cells were analyzed using an Attune NXT Flow Cytometer (Thermo Fisher Scientific). […] However, measurement was not performed under conditions without a step of removing EDTA by centrifugation, because cells were not obtained.
(In general: In flow cytometry, cells or beads pass a laser one at a time.)

Assay [3] has as its system human iPS cells (1383D2 strain) cell aggregates. In words: Dissociation of human iPS cell aggregates by stirring with dissociation agent (micrographs, Vi-CELL viable cell density). The conditions noted are these: culture medium with 10 μM Y-27632; WK11 stirred 17 min, EDTA 2.5 mM stirred 14 min; FIG. 2, FIG. 3. How it is done: The iPS cells maintenance cultured in (2) were seeded at a concentration of 1.5×10^5 cells/mL in a multi-well plate with StemFit (registered trademark) AK03N (Ajinomoto Co., Inc.) containing 10 μM Y-27632 added thereto, and cultured with stirring at a rotation speed of 70 rpm using an orbital shaker MaxQ™ 2000 CO2 Plus (Thermo Fisher Scientific) placed in a CO2 incubator at 37° C. One and three days after seeding, 50 vol % each of the medium was exchanged with AK02N, and the culture was continued until four days later to obtain cell aggregates.
To a culture medium containing the cell aggregates prepared in (3) were added Y-27632 (final concentration 10 μM) and WK11 pre-treated in (1), and the mixture was stirred for 17 min using an orbital shaker. Thereafter, the cell aggregates were sufficiently brought to a single-cell state by pipetting, and the viable cell density was measured using a live/dead cell autoanalyzer Vi-CELL XR (BECKMAN COULTER). […]
To a culture medium containing the cell aggregates prepared in (3) were added Y-27632 (final concentration 10 μM) and EDTA (final concentration 2.5 mM), and the mixture was stirred for 14 min using an orbital shaker. […] The viable cell density of the obtained cell suspension was measured using Vi-CELL XR.
The viable cell density in the culture medium was calculated from the Vi-CELL measured values in Example 1 (4), (5), and (6). […]

As for `O=C(O)CN(CCN(CC(=O)O)CC(=O)O)CC(=O)O` [EDTA, ethylenediaminetetraacetic acid], the “proliferation in 4 days after passage (viable cell density)” value worked out at 0.4 fold in assay [1] (centrifugation step performed to remove the agent) and 0.03 fold in assay [1] (no centrifugation removal of the dissociation agent). For the same molecule, the “proliferation of passaged cells (micrograph)” value in assay [1] (suspension cultured 4 days after passage, FIG. 4) is “proliferated hardly”. Moreover, the “aggregate formation of passaged cells (micrograph)” value in assay [1] (suspension cultured 4 days after passage, without a step of removing EDTA by centrifugation, FIG. 4) is “no aggregates were formed”. The “undifferentiated marker (CD30) positive rate” value is “maintained high values” in assay [2] (Passage 1, 4 days after suspension culture seeding) and “maintained even after culture” in assay [2] (Passage 2, 4 days after suspension culture seeding, EDTA only with centrifugation removal). The “state of cell aggregates after stirring (micrograph)” value in assay [3] was “fragmented and the intercellular binding was weakened”.
